Assay results as given in patent publication US6492174B1, “Methods of initiating embryogenic cultures in plants” (Institute of Paper Science & Technology, priority 2000, dated 2002).

System: rice (Oryza sativa) cultivar Taipei 309 dehulled seeds
Assay: Rice embryogenic callus diameter on MS media with 2.0 mg/l 2,4-D, two weeks
Assay type: cell-based
Conditions: for Callus Diameter (mm) + (std. error): two weeks
Text: In this experiment, brassinolide and elevated atmospheric pressure improved the initiation of embryogenic cultures in rice (Oryza sativa). Rice, an annual angiosperm, is quite taxonomically distant from the conifers used in previous examples. However, as this example makes clear, brassinosteroids and elevated atmospheric pressure effectively increase embryogenic culture initiation of in a wide variety of species.
In this experiment, four initiation treatments were studied, using explants from mature Japaonica rice seeds (cultivar Taipei 309). The explants were dehulled sterilized seeds. About 400 mature seeds were dehulled and surface sterilized in a 5.25% bleach solution for 25 minutes and then rinsed three times with sterile deionized water. About 70 explants were placed into each of four treatment petri dishes containing solid media. The explants were placed with the embryo side up. The basal media was a Murashige and Skoog (MS) media containing 2.0 mg/l 2,4-D. Plates were wrapped in PARAFILM and cultured in the dark at 27° for two weeks.
Treatment 1, the control treatment, consisted of the above-described basal media, contained no brassinolide, and was cultured at atmospheric pressure. Treatment 2 contained the basal media and was cultured at 1.5 atm of pressure. Treatment 3 contained basal to which 0.1 μM brassinolide was added and was cultured at normal atmospheric pressure. Treatment 4 contained basal media to which 1 μM brassinolide was added and was cultured at atmospheric pressure.
After two weeks, embryogenic callus had developed on most of the explants. The embryogenic callus formed in spherical formations around the embryo. During culture, the scutellum elongated and the embryogenic calli formed masses around the base of the scutellum, covering and obscuring the rest of the embryo. Initiation was scored by measuring the diameter of the embrygenic callus on each explant. A larger callus contains more somatic embryos and thus has a greater potential to supply viable embryos for subsequent regeneration of whole plants. Callus size was measured by observing callus under a dissecting scope fitted with an ocular measurement device allowing accurate measurements to 0.1 mm.

CC(C)[C@H](C)[C@@H](O)[C@H](O)[C@@H](C)[C@H]1CC[C@H]2[C@@H]3COC(=O)[C@H]4C[C@H](O)[C@H](O)C[C@]4(C)[C@H]3CC[C@]12C [brassinolide]
average callus size vs control (0.1 μM brassinolide): significantly increased
average callus size vs control (1.0 μM brassinolide): did not increase callus size
Callus Diameter (mm) + (std. error) (+0.1 μM Brassinolide): 4.70 (0.13) mm
Callus Diameter (mm) + (std. error) (+1.0 μM Brassinolide): 4.19 (0.12) mm
